Measured values: PubChem BioAssay AID588780 (Sanford-Burnham Center for Chemical Genomics, 2011)
Activity calls are given as the source filed them.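 The calls were made as follows: active = compounds whose fitted half-maximal concentration in the cell-protection dose series is at or below a set limit; inactive = the rest.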

tested on: H9c2 cardiomyocytes, 2-deoxyglucose stress, ATP luminescence, 2 h; assay: H9c2 cell survival under 2-deoxyglucose stress – uHTS hits, dose response (AID 588780)

Row | SMILES | IC50
1 | O=C(CCc1nc2ccccc2c(=O)[nH]1)N1CCCc2ccccc21 | > 79 µM (inactive)
2 | O=C(CSc1ccc(-c2ccccn2)nn1)N1CCCc2ccccc21 | > 79 µM (inactive)
3 | CCC(=O)N1CCN(c2ccc(NC(=O)c3cc4ccccc4o3)cc2Cl)CC1 | > 79 µM (inactive)
4 | CCOC(=O)Cc1c(C)nc2c(-c3ccc(Cl)cc3)c[nH]n2c1=O | > 79 µM (inactive)
5 | COc1cc(C(=O)NCC(=O)N/N=C/c2ccc(-c3cccc([N+](=O)[O-])c3)o2)cc(OC)c1OC | 12.5 µM
6 | O=C1c2cccnc2Oc2ccc(Cl)cc2N1Cc1ccc(F)cc1 | > 79 µM (inactive)
7 | CC(OC(=O)Cn1[nH]c(=O)c2ccccc2c1=O)C(=O)NC1(C#N)CCCCC1 (stereo unspecified) | > 79 µM (inactive)
8 | CC(C)CC(=O)Nc1ccc(C(=O)COC(=O)Cc2n[nH]c(=O)c3ccccc23)cc1 | > 79 µM (inactive)
9 | O=C(COC(=O)Cc1n[nH]c(=O)c2ccccc12)NNC(=O)c1ccc(Br)cc1 | > 79 µM (inactive)
10 | COc1ccc(CCNC(=O)c2cc(C(=O)c3cc(C)ccc3O)cn(CCc3ccc(OC)cc3)c2=O)cc1 | > 79 µM (inactive)
11 | O=C(CC1CC2CCC1C2)Nc1nc(-c2ccccn2)cs1 (stereo unspecified) | > 79 µM (inactive)
12 | Cc1ccc2cc(C#N)c(N3CCN(C(=O)c4cccs4)CC3)nc2c1 | > 79 µM (inactive)
13 | CC(=O)Nc1ccc(S(=O)(=O)N(Cc2ccco2)Cc2cc3ccccc3[nH]c2=O)cc1 | > 79 µM (inactive)
14 | C=CCn1cnc2c(c1=O)c1nc3ccccc3nc1n2/N=C/c1cc(OC)c(OC)c(OC)c1 | > 79 µM (inactive)
15 | O=C(Nc1ccc(CN2CCOCC2)cc1)c1ccc(-c2cccc([N+](=O)[O-])c2)o1 | > 79 µM (inactive)
16 | COc1cc(NS(=O)(=O)c2ccc3ccccc3c2)c2ncccc2c1 | 18.2 µM
17 | COc1ccc(OCC(O)Cn2c(Br)nc3c2c(=O)[nH]c(=O)n3C)cc1 (stereo unspecified) | 38.7 µM (inactive)
18 | CC(=O)OCc1nc2sc(C)c(C)c2c(=O)[nH]1 | > 79 µM (inactive)
19 | O=C(COC(=O)Cc1n[nH]c(=O)c2ccccc12)NNC(=O)c1ccc(Cl)cc1 | > 79 µM (inactive)
20 | COc1ccc(-n2cc(-c3ccccc3)c3c(N4CCOCC4)ncnc32)cc1 | > 79 µM (inactive)
21 | O=C1c2ccccc2NC(c2cn[nH]c2-c2ccccc2)N1O (stereo unspecified) | > 79 µM (inactive)
22 | CCOC(=O)C1=C(C)N=c2s/c(=C\c3ccncc3)c(=O)n2C1c1ccc2c(c1)OCO2 (stereo unspecified) | 41.1 µM (inactive)
23 | COc1cc(-c2nnc(-c3cc(-c4ccccc4)nc4ccccc34)o2)cc(OC)c1OC | 5.22 µM

Row | SMILES | IC50
24 | O=C(N/N=C/c1ccccn1)c1cc(-c2cccc3ccccc23)n[nH]1 | > 79 µM (inactive)
25 | CN(C)CCCNc1ccc(-c2n[nH]c(=O)c3ccccc23)cc1[N+](=O)[O-] | > 79 µM (inactive)
26 | CC1(c2ccccc2)NC(=O)N(CC(=O)Nc2cccc(/C=C/c3ccccn3)c2)C1=O (stereo unspecified) | 19 µM
27 | COc1cccc(NC(=O)CN(C)C(=O)CCCc2nc3ccccc3c(=O)[nH]2)c1 | > 79 µM (inactive)
28 | CC(C)(C)NC(=O)COC(=O)c1c2c(nc3ccccc13)CCC2 | 15.1 µM
29 | CCCN1CCN(C(=O)CCc2nnc3ccc(N4CCN(c5cccc(OC)c5)CC4)nn23)CC1 | > 79 µM (inactive)
30 | CC(OC(=O)c1cc(-c2cccnc2)nc2ccccc12)C(=O)Nc1ccc2ccccc2c1 (stereo unspecified) | 11 µM
31 | COc1ccc2[nH]c(=O)c(CN(Cc3ccco3)Cc3nnnn3Cc3ccccc3)cc2c1 | > 79 µM (inactive)
32 | NS(=O)(=O)c1cccc(NC(=O)COC(=O)Cc2n[nH]c(=O)c3ccccc23)c1 | > 79 µM (inactive)
33 | O=C(Nc1ccccc1)c1nc[nH]c1C(=O)NCCCCNC(=O)c1[nH]cnc1C(=O)Nc1ccccc1 | > 79 µM (inactive)
34 | CC(C)(C)OC(=O)NCCCCCNC(=O)c1[nH]cnc1C(=O)Nc1ccc(Cl)cc1 | > 79 µM (inactive)
35 | COc1ccc(NC(=O)c2cc(-c3ccc(OC)c(OC)c3)nc3ccccc23)c(OC)c1 | > 79 µM (inactive)
36 | COc1cc(/C=C/c2nc3ccccc3c(=O)n2-c2ccc(O)cc2)ccc1O | 9.14 µM
37 | Cc1cc(NC(=O)COC(=O)Cn2[nH]c(=O)c3ccccc3c2=O)c([N+](=O)[O-])cc1C | > 79 µM (inactive)
38 | C=CC[C@@H](CC(=O)NCCO)C(=O)NC[C@H](OC(=O)[C@@H](CC=C)Cc1ccc(F)cc1)c1ccccc1 | > 79 µM (inactive)
39 | NC(=O)c1ccc(NC(=O)COc2cccc3c2CCNC3=O)cc1 | > 79 µM (inactive)
40 | COC(=O)[C@@]12CCCCN1[C@H](c1ccc(-c3cc(C(C)=O)cs3)cc1)[C@H]1C(=O)N(C)C(=O)[C@H]12 | > 79 µM (inactive)
41 | CCN1C(=O)[C@H]2[C@H]3CN=C(SCc4ccc(C#N)cc4)N3[C@@](Cc3ccccc3)(C(=O)OC)[C@H]2C1=O | > 79 µM (inactive)
42 | COc1ccc(-c2ccc3c(c2)S(=O)(=O)c2cccc(C(=O)NC[C@@H]4CCCO4)c2C3=O)cc1OC | 12.8 µM
43 | Cn1c(C(=O)Nc2ccc3c(c2)OCCO3)cc2c(=O)n(C)c3ccccc3c21 | > 79 µM (inactive)
44 | O=c1[nH]c(N2CCN(c3ccccc3)CC2)nc2c1CCCC2 | > 79 µM (inactive)
45 | O=C(CSc1nc2ccccc2o1)NCc1n[nH]c(=O)c2ccccc12 | 13.9 µM
46 | c1ccc(-c2oc3ncnc(NCCN4CCOCC4)c3c2-c2ccccc2)cc1 | 23.2 µM
